Measurements reported in patent US12275721B2, “Indazole carboxamides as kinase inhibitors” (BRISTOL-MYERS SQUIBB COMPANY, priority 2019, dated 2025).

Key:
[1] = molecular target: T1, His-GST-TVMV-hRIPK1(1-324) (Homo sapiens, UniProt Q13546); assay: RIPK1 HTRF Binding Assay; details: HTRF probe displacement, 1 h at rt
T1 construct: 1 nM His-GST-TVMV-hRIPK1(1-324) in FRET Buffer; made in house; host or cells: Spodoptera frugiperda (Sf9) insect cells, baculovirus (Bac-to-Bac)
T1 sequence (Q13546 1-324): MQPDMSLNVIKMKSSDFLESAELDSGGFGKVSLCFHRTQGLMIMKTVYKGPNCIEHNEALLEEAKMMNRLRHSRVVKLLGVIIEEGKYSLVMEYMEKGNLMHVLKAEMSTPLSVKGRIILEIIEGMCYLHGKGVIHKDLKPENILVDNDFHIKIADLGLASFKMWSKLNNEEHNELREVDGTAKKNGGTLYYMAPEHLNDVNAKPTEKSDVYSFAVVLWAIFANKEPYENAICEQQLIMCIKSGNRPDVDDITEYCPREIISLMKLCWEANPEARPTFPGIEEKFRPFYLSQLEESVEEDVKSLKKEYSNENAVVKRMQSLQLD
Procedure: A solution was prepared containing 0.2 nM Anti GST-Tb (Cisbio, 61GSTTLB), 90.6 nM probe and 1 nM His-GST-TVMV-hRIPK1(1-324) in FRET Buffer (20 mM HEPES, 10 mM MgCl2, 0.015% Brij-35, 4 mM DTT, 0.05 mg/mL BSA). Using Formulatrix Tempest, the detection antibody/enzyme/probe solution ([…]) was dispensed into wells of a 1536 plate (Black Low Binding Polystyrene 1536 Plate (Corning, 3724)) containing 10 nL of compounds of interest at appropriate concentration in DMSO. The plate was incubated at rt for 1 h. FRET was measured using the EnVision plate reader (Excitation: 340 nm, Emission: 520 nm/[…]). Total signal (0% inhibition) was calculated from wells containing 10 nL DMSO only.
Cloning and Baculovirus Expression of RIPK1 Construct
The coding region of human RIPK1(1-324) flanked by NdeI site at 5′ end and stop codon TGA and XhoI site at 3′ end was codon optimized and gene synthesized at GenScript USA Inc. (Piscataway, NJ) and subcloned into a modified pFastBac1 vector (Invitrogen, Carlsbad, CA) with N-terminal His-GST-TVMV tag, to generate His-GST TVMV-hRIPK1(1-324)-pFB. The fidelity of the synthetic fragment was confirmed by sequencing. Baculovirus was generated for the construct using the Bac-to-Bac baculovirus expression system (Invitrogen) according to the manufacturer's protocol. Briefly, recombinant bacmid was isolated from transformed DH10Bac E. coli competent cells 20 (Invitrogen) and used to transfect Spodoptera frugiperda (Sf9) insect cells (Invitrogen). Baculovirus was harvested 72 hours post transfection and a virus stock was prepared by infecting fresh Sf9 cells at a 1/1000 (v/v) ratio for 66 hours. For large scale protein production, Sf9 cells (Expression System, Davis, CA) grown in ESF921 insect medium (Expression System) at 2×10^6 cells/ml were infected with virus stock at a 1/100 (v/v) ratio for 66 hours. The production was carried out either at a 10 L scale in a 22 L cellbag (GE Healthcare Bioscience, Pittsburgh, PA) or at a 20 L scale in a 50 L cellbag using WAVE-Bioreactor System 20/50 (GE Healthcare Bioscience). The infected cells were harvested by centrifugation at 2000 rpm for 20 min at 4° C. in a SORVALL® RC12BP centrifuge. The cell pellets was stored at −70° C. before protein was purified.
Purification of His-GST-TVMV-hRIPK1(1-324)
RIPK1 containing cell paste was resuspended in 50 mM Tris pH 7.5, 150 mM NaCl, 10 mM imidazole, 5% glycerol, 5 mM MgSO4, 1 mM TCEP, 25 U/ml Benzonase, and Complete Protease Inhibitor tablets (1/50 ml, Roche Diagnostics, Indianapolis, IN). The cells were lysed by nitrogen cavitation using an unstirred pressure vessel @ 525 PSI (Parr Instrument Company, Moline, IL). The suspension was clarified by centrifugation at 136,000×g for 40 min, at 4° C. The lysate was decanted from the pellet and passed through a 5 ml NiNTA Superflow cartridge (Qiagen, Valencia, CA) using an AKTA Pure (GE Healthcare). Column was eluted with 10 CV linear gradient into 50 mM Tris 7.5, 150 mM NaCl, 500 mM imidazole, 5% glycerol, 1 mM TCEP. Peak fractions were pooled and loaded directly onto 5 ml GSTrap 4B column (GE Healthcare). Column was washed with 50 mM Tris 7.0, 150 mM NaCl, […], 1 mM DTT and eluted in 10 CV linear gradient into 50 mM Tris 8.0, 150 mM NaCl, 20 mM reduced glutathione, 50% glycerol, 1 mM DTT. Fractions identified by SDS-PAGE as containing RIPK1 were pooled and concentrated using 30 kDa MWCO spin concentrators (Amicon Ultra-15, Millipore, Billerica, MA) and loaded onto a HiLoad 26/600 Superdex 200 column (GE Healthcare) equilibrated in 25 mM Tris 7.5, 150 mM NaCl, 2 mM TCEP, […]. The RTPK1 protein eluted as a dimer off the SEC column. The yield was ˜8 mg/L with a purity […] as determined by Coomassie stain SDS-PAGE gel analysis. […] Protein was aliquoted and stored at −80° C. Using these assays, the IC50 values of the following compounds were determined.

[2] = tested on: MLKL phosphorylation in HT29-L23 human colorectal adenocarcinoma cells; assay: MLKL Phosphorylation High-Content Assay; type: cell-based; details: Homo sapiens, necroptosis induced with TNFα, SMAC mimetic and Z-VAD, 6 h, read-out: pMLKL (IC50)
Procedure: MLKL Phosphorylation High-Content Assay
HT29-L23 human colorectal adenocarcinoma cells were maintained in RPMI 1640 medium containing 10% heat-inactivated FBS, 1% Penicillin-Streptomycin and 10 mM HEPES. Cells were seeded at 2,000 cells/well in 384 well tissue culture-treated microplates (Greiner #781090-3B) and incubated at 37° C. (5% CO2/95% O2) for 2 d. On the day of the assay, the cells were treated with test compounds at final concentrations of 6.25 to 0.106 μM for 30 min at 37° C. (5% CO2/95% O2). Necroptopsis was induced using a mixture of human TNFα (35 ng/mL) (Peprotech #300-01A), SMAC mimetic (from US 2015/0322111 A1) (700 nM) and Z-VAD (140 nM) (BD pharmingen #51-6936). Following 6 h incubation at 37° C. (5% CO2/95% O2), the cells were fixed with 4% formaldehyde (ACROS 11969-0010) for 15 min at rt, then permeabilized with phosphate buffered saline (PBS) containing 0.2% Triton-X-100 for 10 min. MLKL phosphorylation was detected using anti-MLKL (phospho S358) antibody (Abcam #ab187091) (1:1000 dilution in Blocking Buffer [PBS supplemented with 0.1% BSA]) with ON incubation at 4° C. After washing three times in PBS, goat anti-rabbit Alexa-488 (1:1000 dilution) (Life Technologies, A1 1008) and Hoechst 33342 (Life Technologies, H3570) (1:2000 dilution) in Blocking Buffer were added for 1 h at rt. Following another three cycles of washes in PBS, the microplates were sealed, and cellular images were acquired in the Cellomics ArrayScan VTI high-content imager equipped with an X1 camera. Fluorescent images were taken using a 10× objective and the 386-23 BGRFRN_BGRFRN and 485-20 BGRFRN_BGRFRN filter sets, for nuclei and MLKL phosphorylation, respectively. The image sets were analyzed using the Compartmental Analysis Bioapplication software (Cellomics). The level of MLKL phosphorylation was quantified as MEAN_CircRingAvglntenRatio. The maximal inhibitory response was defined by the activity induced by Necls (CAS #: 852391-15-2, 6.25 μm). The IC50 value was defined as the concentration of compound that produces 50% of the maximal inhibition. The data were fitted using the 4-parameter logistic equation to calculate the IC50 and Ymax values.

| SMILES | IC50 [1] [nM] | IC50 [2] [nM] |
| --- | --- | --- |
| CNC(=O)c1n[nH]c2cc(-c3nc(C)c(C(=O)NCC[C@@H](O)c4ccc(Cl)cc4)s3)ccc12 [Example 16, (R)-N-(3-(4-chlorophenyl)-3-hydroxypropyl)-4-methyl-2-(3-(methylcarbamoyl)-1H-indazol-6-yl)thiazole-5-carboxamide] | 150 | 210 |
| CNC(=O)c1n[nH]c2cc(-c3nc(C)c(C(=O)NCC[C@H](O)c4ccc(Cl)cc4)s3)ccc12 [Example 17, (S)-N-(3-(4-chlorophenyl)-3-hydroxypropyl)-4-methyl-2-(3-(methylcarbamoyl)-1H-indazol-6-yl)thiazole-5-carboxamide] | 180 | 340 |
| CNC(=O)c1n[nH]c2cc(-c3nc(C)c(C(=O)NCc4cc(C(F)(F)F)ccc4F)s3)ccc12 [Example 18, N-(2-fluoro-5-(trifluoromethyl)benzyl)-4-methyl-2-(3-(methylcarbamoyl)-1H-indazol-6-yl)thiazole-5-carboxamide] | 15 | 9 |
| CNC(=O)c1n[nH]c2cc(-c3nc(C)c(C(=O)NC(C)c4cc(OC(F)(F)F)ccc4F)s3)ccc12 (stereo not shown) [Example 19, N-(1-(2-fluoro-5-(trifluoromethoxy)phenyl)ethyl)-4-methyl-2-(3-(methylcarbamoyl)-1H-indazol-6-yl)thiazole-5-carboxamide] | 13 | 19 |
| CNC(=O)c1n[nH]c2cc(-c3nc(C(=O)NCc4cc(OC(F)(F)F)ccc4F)cs3)ccc12 [Example 20, N-(2-fluoro-5-(trifluoromethoxy)benzyl)-2-(3-(methylcarbamoyl)-1H-indazol-6-yl)thiazole-4-carboxamide] | 400 | 810 |
| CNC(=O)c1n[nH]c2cc(-c3nc(C(=O)NCCC(C)c4ccccc4)cs3)ccc12 (stereo not shown) [Example 21, 2-(3-(methylcarbamoyl)-1H-indazol-6-yl)-N-(3-phenylbutyl)thiazole-4-carboxamide] | 170 | 810 |
| CNC(=O)c1n[nH]c2cc(-c3nc(C(=O)NCC[C@@H](O)c4ccc(Cl)cc4)cs3)ccc12 [Example 22, (R)-N-(3-(4-chlorophenyl)-3-hydroxypropyl)-2-(3-(methylcarbamoyl)-1H-indazol-6-yl)thiazole-4-carboxamide] | 330 | 1200 |
| CNC(=O)c1n[nH]c2cc(-c3nc(C(=O)NCC[C@H](O)c4ccc(Cl)cc4)cs3)ccc12 [Example 23, (S)-N-(3-(4-chlorophenyl)-3-hydroxypropyl)-2-(3-(methylcarbamoyl)-1H-indazol-6-yl)thiazole-4-carboxamide] | 120 | 1600 |
| CNC(=O)c1n[nH]c2cc(-c3ncc(C(=O)NCCC(C)c4ccccc4)s3)ccc12 (stereo not shown) [Example 24, 2-(3-(methylcarbamoyl)-1H-indazol-6-yl)-N-(3-phenylbutyl)thiazole-5-carboxamide] | 280 | 700 |
| CNC(=O)c1n[nH]c2cc(-c3ncc(C(=O)NCC[C@@H](O)c4ccc(Cl)cc4)s3)ccc12 [Example 25, (R)-N-(3-(4-chlorophenyl)-3-hydroxypropyl)-2-(3-(methylcarbamoyl)-1H-indazol-6-yl)thiazole-5-carboxamide] | 280 | 1600 |
| CNC(=O)c1n[nH]c2cc(-c3nc(C)c(C(=O)NCc4cc(OC(F)(F)F)ccc4F)n3C)ccc12 [Example 26, 6-(5-((2-fluoro-5-(trifluoromethoxy)benzyl)carbamoyl)-1,4-dimethyl-1H-imidazol-2-yl)-N-methyl-1H-indazole-3-carboxamide] | 30 | 49 |
| CNC(=O)c1n[nH]c2cc(-c3nc(C)c(C(=O)NCCC(C)c4ccccc4)n3C)ccc12 (stereo not shown) [Example 27, 6-(1,4-dimethyl-5-((3-phenylbutyl)carbamoyl)-1H-imidazol-2-yl)-N-methyl-1H-indazole-3-carboxamide] | 220 | 470 |
| CNC(=O)c1n[nH]c2cc(-c3nc(C)c(C(=O)NCC[C@@H](O)c4ccc(Cl)cc4)n3C)ccc12 [Example 28, (R)-6-(5-((3-(4-chlorophenyl)-3-hydroxypropyl)carbamoyl)-1,4-dimethyl-1H-imidazol-2-yl)-N-methyl-1H-indazole-3-carboxamide] | 460 | 2600 |
| CNC(=O)c1n[nH]c2cc(-c3nc(C)c(C(=O)NCC[C@H](O)c4ccc(Cl)cc4)n3C)ccc12 [Example 29, (S)-6-(5-((3-(4-chlorophenyl)-3-hydroxypropyl)carbamoyl)-1,4-dimethyl-1H-imidazol-2-yl)-N-methyl-1H-indazole-3-carboxamide] | 1900 | 3300 |
